Reference: the OPERA property sets (Mansouri et al. 2018)

Details: not given

First: Clc1cc(Cl)c2c(Cl)ccc(Cl)c2c1
Second: Clc1ccccc1Cl
The log10 Koa of the first is higher: 8.28 for the first, 4.36 for the second.

For `Clc1ccccc1`, the log10 Koa was 3.31.

First: O=C(O)Cc1cc(O)ccc1O
Second: CCOc1cccc(C(=O)O)c1
The melting point of the first is higher: 153 °C for the first, 137 °C for the second.

First: O=[N+]([O-])c1ccc(O)c(F)c1
Second: CC(=O)OC(OC(C)=O)c1ccc([N+](=O)[O-])o1
The melting point of the first is higher: 121 °C for the first, 91 °C for the second.

Going from `C=CCC1CCCC1` to `NCC1CCNCC1`, the melting point rises from -111 °C to 25 °C.

First: O=C(OCCOCCOC(=O)c1ccccc1)c1ccccc1
Second: CCCNC(=O)COC(=O)c1ccccc1
The melting point of the first is lower: 33.5 °C for the first, 89.5 °C for the second.

Going from `Cc1cccc2c(C)cccc12` to `CC(=O)Oc1cccc2ccccc12`, the melting point falls from 82 °C to 44.5 °C.

Compared with `O=C=Nc1cccc(Cl)c1`, `Clc1ccccc1` is lower in melting point: -4 °C for the first, -45.2 °C for the second.

Going from `CC1(C)[C@@H]2CC(=O)[C@@](C)(O)[C@H]1C2` to `CN(C)C(=O)N[C@@H]1C[C@@H]2C[C@H]1[C@@H]1CCC[C@H]21`, the melting point rises from 38.5 °C to 177 °C.

Compared with `Cc1cc(N)nc(C)n1`, `Cc1c[nH]c(=O)[nH]c1=O` is higher in melting point: 183 °C for the first, 316 °C for the second.

Going from `CC1CCCC(C)N1C(=O)COC(=O)c1ccccc1` (stereo not drawn) to `ONc1ccccc1`, the melting point falls from 118 °C to 83.5 °C.

Compared with `C/C=C/C/C=C/CCC(=O)[C@H]1O[C@H]1C(N)=O`, `NC(=O)CC(N)C(=O)O` (stereo not drawn) is higher in melting point: 93.5 °C for the first, 234 °C for the second.

Compared with `CC(C)OC(N)=O`, `O=C(O)C(Cl)Cl` is lower in melting point: 93 °C for the first, 13.5 °C for the second.

Compared with `CCc1ccc(CC)cc1`, `CCCCCCc1ccccc1` is lower in melting point: -42.8 °C for the first, -61 °C for the second.

First: N#Cc1ccccc1-c1ccccc1
Second: COc1cccc(Nc2ccccc2)c1
The melting point of the first is lower: 41 °C for the first, 73 °C for the second.

Compared with `CC(C)=CCC/C(C)=C/C=C/C(C)=C/C=C/C(C)=C/C=C/C=C(C)/C=C/C=C(C)/C=C/C=C(\C)CCC=C(C)C`, `CCC(O)(CC)CC` is lower in melting point: 175 °C for the first, -12.5 °C for the second.

Going from `Clc1ccccc1Cl` to `Clc1ccc(Cn2c(CN3CCCC3)nc3ccccc32)cc1`, the melting point rises from -16.7 °C to 167 °C.

Compared with `Oc1ccc(C2CCCCC2)cc1`, `N=C(N)NS(=O)(=O)c1ccc(N)cc1` is higher in melting point: 133 °C for the first, 192 °C for the second.

Compared with `CCCCCSC`, `CCCCCOC(=O)CCCCC` is higher in melting point: -94 °C for the first, -47 °C for the second.

First: CCCCCCCCCCCCCCCCCCCC(=O)OC
Second: O=C(O)CCCCCCCCCCCCC1C=CCC1 (stereo not drawn)
The melting point of the first is lower: 54.5 °C for the first, 68.5 °C for the second.

Going from `C[C@H](Oc1ccc(Oc2nc3ccc(Cl)cc3o2)cc1)C(=O)O` to `COc1ccc(C=O)cc1OC`, the melting point falls from 158 °C to 43 °C.

Going from `CCOC(=O)CN1CCN(C(=O)/C=C\c2cc(OC)c(OC)c(OC)c2)CC1` to `CCN(Cc1ccc(Cl)nc1)C(=C[N+](=O)[O-])NC`, the melting point falls from 96 °C to 82.8 °C.

Compared with `CCCC(C)(C)C`, `CN1C(=O)C=CC1=O` is higher in melting point: -124 °C for the first, 95 °C for the second.

`O=C1CCC(N2C(=O)c3ccccc3C2=O)C(=O)N1` (stereo not drawn) showed a melting point of 270 °C.

Compared with `C=CCC1CCCC1`, `NCC1CCNCC1` is higher in boiling point: 125 °C for the first, 200 °C for the second.

First: COC(=O)CCS
Second: CCCCCOC(=O)CCCCC
The boiling point of the first is lower: 166 °C for the first, 226 °C for the second.

Going from `C=CC(=O)OCCO` to `CCC(=O)OC/C=C(\C)CCC=C(C)C`, the boiling point rises from 191 °C to 253 °C.

First: CC(C)NNC(C)C
Second: CC(C)OC(N)=O
The boiling point of the first is lower: 125 °C for the first, 183 °C for the second.

First: Cc1cccc2c(C)cccc12
Second: CCc1ccc(CC)cc1
The boiling point of the first is higher: 265 °C for the first, 184 °C for the second.

Compared with `CCC(Cl)(Cl)Cl`, `CCC(O)(CC)CC` is higher in boiling point: 108 °C for the first, 142 °C for the second.

First: CC(C)=CCCc1ccoc1
Second: CC(C)=CCCl
The boiling point of the first is higher: 186 °C for the first, 109 °C for the second.

First: CC1=CC[C@@H](C(C)C)CC1
Second: CC(C)C1CC=C(C=O)CC1 (stereo not drawn)
The boiling point of the first is lower: 174 °C for the first, 223 °C for the second.

Going from `FC(F)(F)C(F)(F)C(F)(F)C(F)(F)C(F)(F)C(F)(F)C(F)(F)C(F)(F)C(F)(F)Br` to `CCOS(=O)(=O)C(F)(F)F`, the boiling point falls from 159 °C to 115 °C.

First: Clc1ccccc1Cl
Second: Clc1ccccc1
The boiling point of the first is higher: 180 °C for the first, 132 °C for the second.

Going from `Oc1ccc(C2CCCCC2)cc1` to `CN1CCCCC1`, the boiling point falls from 294 °C to 107 °C.

First: CCCCCSC
Second: CCCCCCc1ccccc1
The boiling point of the first is lower: 145 °C for the first, 226 °C for the second.

Going from `CCCC(C)(C)C` to `COc1ccc(C=O)cc1OC`, the boiling point rises from 79.2 °C to 281 °C.

First: O=C(O)C(Cl)Cl
Second: Fc1ccccn1
The boiling point of the first is higher: 194 °C for the first, 127 °C for the second.

In the case of `COC(=O)CCS`, the ready biodegradability is reported as “readily biodegradable”.
For `C=CC(=O)OCCO`, the ready biodegradability was “readily biodegradable”.
In the case of `Clc1ccccc1NNc1ccccc1Cl`, the ready biodegradability is reported as “not readily biodegradable”.
With `CCc1ccc(CC)cc1` the ready biodegradability was “not readily biodegradable”.
In the case of `Clc1ccccc1Cl`, the ready biodegradability is reported as “not readily biodegradable”.
With `CN1CCCCC1` the ready biodegradability was “not readily biodegradable”.
In the case of `CCCCCCc1ccccc1`, the ready biodegradability is reported as “readily biodegradable”.
With `COc1ccc(C=O)cc1OC` the ready biodegradability was “readily biodegradable”.
In the case of `Clc1ccccc1`, the ready biodegradability is reported as “not readily biodegradable”.
With `O=C(O)C(Cl)Cl` the ready biodegradability was “readily biodegradable”.

Compared with `C=CC(=O)OCCO`, `O=C(O)C(Cl)Cl` is higher in log10 vapour pressure (mmHg): -1.28 for the first, -0.748 for the second.

Going from `Cc1cccc2c(C)cccc12` to `CCc1ccc(CC)cc1`, the log10 vapour pressure (mmHg) rises from -2.3 to 0.0253.

Going from `O=C=Nc1cccc(Cl)c1` to `Clc1ccccc1`, the log10 vapour pressure (mmHg) rises from -0.712 to 1.08.

Compared with `CCC(Cl)(Cl)Cl`, `CCCC(C)(C)C` is higher in log10 vapour pressure (mmHg): 1.5 for the first, 2.02 for the second.

Compared with `Clc1ccccc1Cl`, `CCCCCCc1ccccc1` is lower in log10 vapour pressure (mmHg): 0.134 for the first, -0.919 for the second.

Work on `CN1CCCCC1` yielded a log10 vapour pressure (mmHg) of 1.29.

First: Cc1cccc2c(C)cccc12
Second: Clc1ccccc1
The log10 Henry constant (atm·m³/mol) of the first is lower: -3.46 for the first, -2.51 for the second.

First: Clc1ccccc1Cl
Second: O=C(O)C(Cl)Cl
The log10 Henry constant (atm·m³/mol) of the first is higher: -2.72 for the first, -8.08 for the second.

Compound `CN1CCCCC1` has a log10 Henry constant (atm·m³/mol) of -4.46.

Compared with `Clc1ccccc1Cl`, `Clc1ccccc1` is lower in log10 Koc (L/kg): 2.56 for the first, 2.15 for the second.

Compound `C#CC(C)(C)NC(=O)c1ccc(Cl)cc1` has a log10 Koc (L/kg) of 1.9.

Compound `CCCC(C)(C)C` has a log10 biodegradation half-life (days) of 0.845.

Same assay, conditions: fish

Going from `C=C(C)CCCCCCCCCCC` to `CCc1ccc(CC)cc1`, the log10 biotransformation half-life (days) falls from 0.73 to -0.01.

Going from `Oc1cccc(Br)c1` to `Clc1ccccc1Cl`, the log10 biotransformation half-life (days) rises from -0.95 to 0.5.

Going from `c1ccc2c(c1)ccc1ccccc12` to `Clc1ccccc1`, the log10 biotransformation half-life (days) falls from 0.7 to -1.02.

First: Oc1cccc(Br)c1
Second: Clc1ccccc1Cl
The log10 BCF of the first is lower: 1.18 for the first, 2.43 for the second.

Going from `c1ccc2c(c1)ccc1ccccc12` to `Clc1ccccc1NNc1ccccc1Cl`, the log10 BCF rises from 3.4 to 3.66.

`O=S(=O)(O)c1ccc(O)c2ccccc12` and `Clc1ccccc1` are within 0.2 log units of each other in log10 BCF: 1.11 for the first, 1.25 for the second.

First: CCc1ccc(CC)cc1
Second: CN1CCCCC1
The log10 BCF of the first is higher: 2.68 for the first, 0.65 for the second.
